Results from ChEMBL document CHEMBL3877324, “Synthesis of new spirooxindole-pyrrolothiazole derivatives: Anti-cancer activity and molecular docking” (Bioorg Med Chem, 2017).

What was measured:
[1] = Growth inhibition of human K562 cells after 48 hrs by WST1 assay; format: functional, cell-based; conditions: K562, 48 h
[2] = Growth inhibition of human MCF7 cells after 48 hrs by WST1 assay; format: functional, cell-based; conditions: MCF7, 48 h
MCF7 = assay: Induction of apoptosis in human MCF7 cells at 10 uM after 48 hrs by Annexin-V FITC/propidium iodide staining based flow cytometry relative to control; format: functional

Row | SMILES | IC50 [1] | IC50 [2] | fold change (FC) (MCF7)
1 | O=C1Nc2ccccc2[C@]12N1CSC[C@H]1[C@H](c1ccc(Cl)cc1)[C@]21CCC/C(=C\c2ccc(Cl)cc2)C1=O | 24 µM | 49.1 µM | –
2 | Cc1cccc(/C=C2\CCC[C@@]3(C2=O)[C@@H](c2cccc(C)c2)[C@@H]2CSCN2[C@@]32C(=O)Nc3ccccc32)c1 | 30.7 µM | 28.1 µM | –
3 | O=C1Nc2ccccc2[C@]12N1CSC[C@H]1[C@H](c1ccc(Br)cc1)[C@]21CCC/C(=C\c2ccc(Br)cc2)C1=O | 14.7 µM | 15.3 µM | 2
4 | COc1ccc(/C=C2\CCC[C@@]3(C2=O)[C@@H](c2ccc(OC)cc2)[C@@H]2CSCN2[C@@]32C(=O)Nc3ccccc32)cc1 | 19.5 µM | 24.4 µM | –
5 | O=C1Nc2ccccc2[C@]12N1CSC[C@H]1[C@H](c1cccc(F)c1)[C@]21CCC/C(=C\c2cccc(F)c2)C1=O | 15.7 µM | 145 µM | –
6 | O=C1Nc2ccccc2[C@]12N1CSC[C@H]1[C@H](c1ccccc1)[C@]21CCC/C(=C\c2ccccc2)C1=O | 16.6 µM | 26.8 µM | –
7 | O=C1Nc2ccccc2[C@]12N1CSC[C@H]1[C@H](c1cccc([N+](=O)[O-])c1)[C@]21CCC/C(=C\c2cccc([N+](=O)[O-])c2)C1=O | 27.6 µM | 25.8 µM | –
8 | O=C1Nc2ccccc2[C@]12N1CSC[C@H]1[C@H](c1cccc(Br)c1)[C@]21CCC/C(=C\c2cccc(Br)c2)C1=O | 22.2 µM | 34.8 µM | –
9 | Cc1ccc(/C=C2\CCC[C@@]3(C2=O)[C@@H](c2ccc(C)cc2)[C@@H]2CSCN2[C@@]32C(=O)Nc3ccccc32)cc1 | 38.1 µM | 43.1 µM | –
10 | O=C1Nc2ccccc2[C@]12N1CSC[C@H]1[C@H](c1ccc(C(F)(F)F)cc1)[C@]21CCC/C(=C\c2ccc(C(F)(F)F)cc2)C1=O | 33.2 µM | 49.4 µM | –
11 | O=C1Nc2ccccc2[C@]12N1CSC[C@H]1C(c1ccc(Cl)cc1Cl)[C@]21CCC/C(=C\c2ccc(Cl)cc2Cl)C1=O (single isomer, unassigned) | 19.5 µM | 26.1 µM | –
12 | O=c1[nH]cc(F)c(=O)[nH]1 [FLUOROURACIL] | – | 78.3 µM | –
